In the SangsterLogP compilation:

SMILES	logP
CCN(CC)CC(=O)NC1COc2ccc(Cl)cc21 (stereo not drawn)	2.88
O=C(CN1CCCCC1)NC1COc2ccccc21 (stereo not drawn)	2.3
CCCCN(CCCC)CC(=O)NC1COc2ccc(Cl)cc21 (stereo not drawn)	4.44
CCCCN(CCCC)CC(=O)NC1COc2ccccc21 (stereo not drawn)	4.15
Cc1ccc2c(c1)C(NC(=O)CN1CCCC1)CO2 (stereo not drawn)	2.24
CCCCN(CCCC)CC(=O)NC1COc2ccc(C)cc21 (stereo not drawn)	4.43
CCN(CC)CC(=O)NC1COc2ccc(C)cc21 (stereo not drawn)	2.69
COc1ccc2c(c1)OCC2NC(=O)CN1CCCCC1 (stereo not drawn)	2.41
O=C(CN1CCCC1)NC1COc2ccc(Cl)cc21 (stereo not drawn)	2.47
O=C(CN1CCCCC1)NC1COc2ccc(Cl)cc21 (stereo not drawn)	3.01
O=C(CN1CCOCC1)NC1COc2ccccc21 (stereo not drawn)	0.81
O=C(CN1CCOCC1)NC1COc2ccc(Cl)cc21 (stereo not drawn)	1.55
O=C(CN1CCCC1)NC1COc2ccccc21 (stereo not drawn)	1.76
CCN(CC)CC(=O)NC1COc2ccccc21 (stereo not drawn)	2.2
Cc1ccc2c(c1)C(NC(=O)CN1CCOCC1)CO2 (stereo not drawn)	1.38
Cc1ccc2c(c1)C(NC(=O)CN1CCCCC1)CO2 (stereo not drawn)	2.78
COc1ccc2c(c1)OCC2NC(=O)CN1CCOCC1 (stereo not drawn)	0.92
CCCCN(CCCC)CC(=O)NC1COc2cc(OC)ccc21 (stereo not drawn)	4.24
